Tests used:
[1] = system: A549, H460 and A172 cell lines; experiment: Antiproliferative activity test (Alamar Blue, 72 hours), statements across cell lines; type: cell-based, human; settings: result in words; for induction of cell death: no data are shown
Excerpt: (§1) Antiproliferative activities of exiguolide and its analogs shown in Examples were examined using A549 and H460 cell lines derived from lung cancer and an A172 cell line derived from human glioblastoma cells. Each cell line was maintained in an RPMI 1640 medium supplemented with 10% fetal bovine serum (in the cases of the H460 cell line and the A172 cell line) or in a DMEM medium supplemented with 10% fetal bovine serum (in the case of the A549 cell line). Cells in the proliferative phase were seeded in a 96-well plate in triplicate and were cultured for 72 hours in the presence of the compound at various concentrations. At the completion of the culture period, an Alamar Blue solution (Invitrogen Corporation) was added to each culture in an amount of 1/10 of that of the medium, followed by leaving to stand for 3 hours. The fluorescence intensity was measured with Fluoroskan Ascent (Thermo Fisher Scientific K.K.). […] The fluorescence intensities of experimental groups were determined as relative intensities to that of the control group and were plotted. The concentration of a compound for achieving the 50% growth inhibition (IC50) of each cancer cell line was calculated by a non-linear regression model of standard slope using the GraphPad Prism software.

[2] = system: A549 cell line; settings: National Cancer Institute database; cited from earlier work
[3] = system: NCI-H460 cell line; settings: National Cancer Institute database; cited from earlier work
[4] = system: SK-OV-3 cell line; settings: National Cancer Institute database; cited from earlier work
[5] = system: tumors induced by human lung cancer cell line A549; experiment: In vivo antitumor activity test, subcutaneous tumor in immunodeficient mice; design: species or system mice (BALB/cAJcl-nu/nu); settings: printed 'in the H460 cell line', 0.2 mg/kg intraperitoneally once a day
Description: (§2) Immunodeficient mice (BALB/cAJcl-nu/nu) were subcutaneously inoculated with human lung cancer cells (H460, A549, etc.). When the subcutaneous tumor volume reached approximately 200 mm^3, the mice were divided into an exiguolide administration group (n=2) and a control group (n=4) at random. The administration group was intraperitoneally administered with 0.2 mg/kg of exiguolide, and the control group with PBS (200 μL) and DMSO (5 to 10 μL), every day (once a day). […] The subcutaneous tumors were recognized from the body surface, and the change in tumor diameter was measured with a vernier caliper. […] After completion of the observation, the mice were euthanized with halothane. The tumors were extracted and were subjected to observation of the size, weight, and pathological findings.
(§3) The results are shown in FIG. 8 (H460) and FIG. 9 (A549). In each graph, the vertical axis (relative volume) represents the relative values of the estimated tumor volume of each group to that on the day 0, where the estimated tumor volume is expressed using a major axis “a” and a minor axis “b” by (a×b^2)/2.

[6] = system: tumors induced by human lung cancer cell line H460; experiment: as above; design: species or system mice (BALB/cAJcl-nu/nu); settings: 0.2 mg/kg intraperitoneally once a day, 15 days
Description: as §2, §3

[7] = system: A549 (human lung adenocarcinoma); experiment: Drug sensitivity test, panel of human cultured cancer cell lines (sulforhodamine B colorimetry); type: cell-based
Description: (§4) The anticancer activity of exiguolide was examined by an in vitro drug sensitivity test using a panel of 39 human cultured cancer cell lines, by Professor Yamori, Molecular Pharmacology, Cancer Chemotherapy Center of Japanese Foundation for Cancer Research upon request.
(§5) The test was performed by seeding seven lung cancer cell lines, six gastric cancer cell lines, five colon cancer cell lines, five ovarian cancer cell lines, six brain cancer cell lines, five breast cancer cell lines, two kidney cancer cell lines, two prostatic cancer cell lines, and one melanoma cell line, 39 cell lines in total, in a 96-well plate, adding a sample solution containing a predetermined concentration of exiguolide to each well on the following day, culturing the cell lines for two days, and measuring the cell growth by colorimetry with sulforhodamine B. The measurement results were input into a computer, and the sensitivity patterns (growth rate and finger print, described below) of each cell line on exiguolide were analyzed using three parameters, GI50, TGI, and LC50, as indices. The data were also subjected to analysis comparing with sensitivities on known compounds showing cell growth-inhibiting activities.
(§6) The growth rate percentages were plotted with respect to drug concentrations (logarithm) for each cell line, and the growth rates (%) were summarized on each organ cancer (FIG. 3: dose-response curves). In each curve, the concentrations at the points at which the growth rates 50%, 0%, and -50% intersect horizontal lines correspond to log GI50, log TGI, and log LC50, respectively.
(§7) The average of log GI50 values of all cell lines tested was determined. The difference between this average and log GI50 value of each cell line (e.g., how much the GI50 of each cell line is high or low relative to the average is shown as logarithmic value) was determined, and the results were drawn as a bar graph extending left or right from the center showing the average log GI50 value (scale: 0) to form finger prints (FIG. 4). A cell line having higher sensitivity is drawn as a longer bar extending to the right side.

[8] = system: SK-OV-3 (human ovarian carcinoma); experiment: as above; type: cell-based
Description: as §4, §5, §6, §7

[9] = system: MKN74 (human gastric carcinoma); experiment: as above; type: cell-based
Description: as §4, §5, §6, §7

[10] = system: NCI-H460 (human lung large cell carcinoma); experiment: as above; type: cell-based
Description: as §4, §5, §6, §7

[11] = system: A172 cell line derived from human glioblastoma cells; experiment: Antiproliferative activity test (Alamar Blue, 72 hours); type: cell-based; settings: read-out: IC50 (50% growth inhibition)
Excerpt: as §1

[12] = system: Rb phosphorylation in A549 cell line; experiment: Activity of cell cycle regulator Rb by Western blotting; type: cell-based, human; settings: A549 exposed to 0.01 to 5 μM for 72 hours
[13] = system: Hemicentrotus pulcherrimus; settings: Non Patent Literature 1; cited from earlier work
[14] = system: H460 cell line derived from lung cancer; experiment: Antiproliferative activity test (Alamar Blue, 72 hours); type: cell-based, human; settings: read-out: IC50 (50% growth inhibition)
Excerpt: as §1

[15] = system: A549 cell line derived from lung cancer; experiment: as above; type: cell-based, human; settings: read-out: IC50 (50% growth inhibition)
Excerpt: as §1

[16] = system: H460 cell line; settings: H460 exposed to 1 μM
Description: The cell-cycle arrest activity of exiguolide was investigated. The H460 cell line was exposed to 1 μM of exiguolide, and the ratio of cells at each cell cycle phase was measured with a flow cytometer. The DNA staining reagent used was propidium iodide. The A549 cell line was exposed to exiguolide (0.01 to 5 μM) for 72 hours, and then the activity of a cell cycle regulator, Rb, was measured by Wester blotting.

[17] = concentration inducing 50% cell death, read-out: LC50 (the source's name)
[18] = concentration inducing 50% growth inhibition, two days culture

## COC(=O)C/C(C)=C/C=C\C=C\C1OC(=O)CC2C[C@H](O)C[C@H](CC3CCC[C@H](C[C@@H](C)/C=C/[C@@H]1C)O3)O2 (stereo partly shown) [analog 1]
[1]
  cell growth-inhibiting effect: remarkable cell growth-inhibiting effects
  induction of cell death: active induction of cell death was observed

## CCCCC=C/C=C/C1OC(=O)CC2C[C@H](O)C[C@H](CC3CCC[C@H](C[C@@H](C)/C=C/[C@@H]1C)O3)O2 (stereo partly shown) [analog 4]
[1]
  cell growth-inhibiting effect: remarkable cell growth-inhibiting effects
  induction of cell death: active induction of cell death was observed

## COC(=O)C/C(C)=C/C=C\C=C\C1OC(=O)CC2CC(=O)C[C@H](CC3CCC[C@H](C[C@@H](C)/C=C/[C@@H]1C)O3)O2 (stereo partly shown) [analog 7]
[1]
  cell growth-inhibiting effect: remarkable cell growth-inhibiting effects
  induction of cell death: active induction of cell death was observed

## CCC/C=C/C=C/C(=O)O[C@H]1/C(=C/C(=O)OC)C[C@H]2C[C@H]([C@@H](C)O)OC(=O)C[C@H](O)C[C@@H]3C[C@H](OC(C)=O)C(C)(C)[C@](O)(C[C@@H]4C/C(=C/C(=O)OC)C[C@H](/C=C/C(C)(C)[C@]1(O)O2)O4)O3 [bryostatin 1]
[2]
  antiproliferative activity (log value compared with Log GI50): −5.4
[3]
  antiproliferative activity (log value compared with Log GI50): −5.6
[4]
  antiproliferative activity (log value compared with Log GI50): −5.3

## COC(=O)/C=C1\C[C@H]2CC(=O)O[C@@H](/C=C/C=C\C=C(/C)CC(=O)OC)[C@@H](C)/C=C/[C@H](C)C[C@H]3CCC[C@@H](C[C@@H](C1)O2)O3 [exiguolide, (−)exiguolide]
[5]; second of two ratios
  relative tumor weight ratio (administration group/control group) at the end of the experiment: 0.33
[5]; second of two values
  relative tumor weight of administration group at the end of the experiment: 1.17
[6]
  relative tumor weight of administration group at the end of the experiment: 3.35
  relative tumor weight ratio (administration group/control group) at the end of the experiment: 0.17
[7]; [17]
  CC50: > 100 µM
[7]; [18]
  GI50: 0.65 µM
  Log GI50: −6.19
[8]; [17]
  CC50: > 100 µM
[8]; [18]
  GI50: 0.7 µM
  Log GI50: −6.15
[9]; [17]
  CC50: > 100 µM
[9]; [18]
  GI50: 0.69 µM
  Log GI50: −6.16
[10]; concentration inducing 50% cell death
  LC50: > 100 µM
[10]; [18]
  GI50: 0.01 µM
  Log GI50: −8.00
[11]
  IC50: 0.46 µM
[12]
  phosphorylation of G1-regulating protein Rb: decreased with an increase in concentration of exiguolide
[13]
  activity of inhibiting maturation of ova and spermatozoa: activity of inhibiting maturation of ova and spermatozoa
[14]
  IC50: 0.28 µM
[15]
  IC50: 0.59 µM
[16]
  ratio of cells at G1 phase in cell cycle: consistently increased the ratio of the G1 phase in cell cycle
